Measured values: article PMC5285354, “Cationic Net Charge and Counter Ion Type as Antimicrobial Activity Determinant Factors of Short Lipopeptides” (Frontiers in Microbiology, 2017)
In brackets after ≈: the same amount, converted by molar mass. Where a SMILES comes first, the peptide text is derived from it. The star is where a group is joined. Palmitoyl = CCCCCCCCCCCCCCCC(=O)*; Myristoyl = CCCCCCCCCCCCCC(=O)*

Tests used:
Assay type in all cases: cell-based
[1] = tested on: Proteus vulgaris (PCM 2668); conditions: 24 h
[2] = tested on: Staphylococcus aureus (ATCC 25923); conditions: for MBC Staphylococcus aureus, lipopeptides without TFA counter ion / MIC Staphylococcus aureus / MIC Staphylococcus aureus, lipopeptides without TFA counter ion: ATCC 25923, 18 h; for MBC Staphylococcus aureus: ATCC 25923, 24 h
Summary of the method: (§1)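 CLSI broth microdilution: bacteria in Mueller-Hinton broth at 10^5 cfu/mL inoculum, 18 h at 37°C; fungi in Sabouraud Dextrose broth at 10^3 cfu/mL, 48 h at 25°C. MIC (μg/mL) is the lowest lipopeptide concentration inhibiting visible growth; triplicate on three days.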

[3] = tested on: Candida albicans (ATCC 10231); conditions: ATCC 10231, 48 h
Summary of the method: as §1

[4] = tested on: Staphylococcus epidermidis (PCM 2118); conditions: for MIC Staphylococcus epidermidis: PCM 2118, 18 h; for MBC Staphylococcus epidermidis: PCM 2118, 24 h
Summary of the method: (§2)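 Broth microdilution per CLSI: Mueller-Hinton broth, 10^5 cfu/mL inoculum, 18 h at 37°C for bacteria; Sabouraud dextrose broth, 10^3 cfu/mL, 48 h at 25°C for fungi. MIC (μg/mL) is the lowest lipopeptide concentration inhibiting visible growth; MBC/MFC also determined. Triplicate on three days.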

[5] = tested on: Proteus vulgaris (PCM 2668); conditions: 18 h
Summary of the method: as §1

[6] = tested on: Bacillus subtilis (ATCC 6633); conditions: for MIC Bacillus subtillis: ATCC 6633, 18 h; for MBC Bacillus subtillis: ATCC 6633, 24 h
Summary of the method: as §2

[7] = tested on: Candida tropicalis (PCM 2681); conditions: PCM 2681, 48 h
Summary of the method: as §1

[8] = tested on: Escherichia coli (ATCC 25922); conditions: for MBC Escherichia coli, lipopeptides without TFA counter ion / MIC Escherichia coli / MIC Escherichia coli, lipopeptides without TFA counter ion: ATCC 25922, 18 h; for MBC Escherichia coli: ATCC 25922, 24 h
Summary of the method: as §1

[9] = tested on: Enterococcus faecalis (ATCC 29212); conditions: for MBC Enterococcus fecalis, lipopeptides without TFA counter ion / MIC Enterococcus fecalis / MIC Enterococcus fecalis, lipopeptides without TFA counter ion: ATCC 29212, 18 h; for MBC Enterococcus fecalis: ATCC 29212, 24 h
Summary of the method: as §2

[10] = tested on: Pseudomonas aeruginosa (ATCC 9027); conditions: ATCC 9027, 18 h
Summary of the method: as §1

[11] = tested on: Aspergillus brasiliensis (ATCC 16404); conditions: ATCC 16404, 48 h
Summary of the method: as §1

[12] = tested on: Klebsiella pneumoniae (ATCC 700603); conditions: for MBC Klebsiella pneumoniae, lipopeptides without TFA counter ion / MIC Klebsiella pneumoniae / MIC Klebsiella pneumoniae, lipopeptides without TFA counter ion: ATCC 700603, 18 h; for MBC Klebsiella pneumoniae: ATCC 700603, 24 h
Summary of the method: as §1

[13] = tested on: human red blood cells; conditions: 1 h
Summary of the method: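 Washed donor erythrocytes (4% v/v in PBS, EDTA-anticoagulated) incubated with graded lipopeptide concentrations for 1 h at 37 °C; hemoglobin release read at 550 nm in supernatants. Scaled between 0.1% Triton X-100 (100%) and PBS (0%); MHC is the lowest concentration giving 10% hemolysis.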

[14] = tested on: Pseudomonas aeruginosa (ATCC 9027); conditions: ATCC 9027, 24 h
[15] = tested on: Candida albicans (ATCC 10231)

`CCCCCCCCCCCCCCCC(=O)N[C@@H](CCCCN)C(=O)NCC(=O)N[C@@H](CCCCN)C(N)=O` [C16-KGK-NH2] (Palmitoyl-Lys-Gly-Lys-NH2) was tested, and the “MBC Proteus vulgaris” value [1] was greater than 512 µg/mL, the “MBC Staphylococcus aureus, lipopeptides without TFA counter ion” value [2] was 4 µg/mL (≈ 7.03 µM) and the “MIC Staphylococcus aureus” value [2] was 8 µg/mL (≈ 14.1 µM). The “MIC Staphylococcus aureus, lipopeptides without TFA counter ion” value [2] was 4 µg/mL (≈ 7.03 µM), the “MBC Staphylococcus aureus” value [2] was 8 µg/mL (≈ 14.1 µM) and the “MFC Candida albicans” value [3] was 128 µg/mL (≈ 225 µM). For the same compound, the “MIC Candida albicans” value [3] was 128 µg/mL (≈ 225 µM), the “MIC Candida albicans, lipopeptides without TFA counter ion” value [3] was 128 µg/mL (≈ 225 µM) and the “MIC Staphylococcus epidermidis” value [4] was 4 µg/mL (≈ 7.03 µM). For the same compound, the “MBC Staphylococcus epidermidis” value [4] was 4 µg/mL (≈ 7.03 µM), the “MIC Proteus vulgaris” value [5] was greater than 512 µg/mL and the “MIC Bacillus subtillis” value [6] was 4 µg/mL (≈ 7.03 µM). For the same compound, the “MBC Bacillus subtillis” value [6] was 4 µg/mL (≈ 7.03 µM), the “MFC Candida tropicalis” value [7] was 256 µg/mL (≈ 450 µM) and the “MIC Candida tropicalis” value [7] was 256 µg/mL (≈ 450 µM). The “MBC Escherichia coli, lipopeptides without TFA counter ion” value [8] was 4 µg/mL (≈ 7.03 µM), the “MIC Escherichia coli” value [8] was 8 µg/mL (≈ 14.1 µM) and the “MIC Escherichia coli, lipopeptides without TFA counter ion” value [8] was 4 µg/mL (≈ 7.03 µM). For the same compound, the “MBC Escherichia coli” value [8] was 8 µg/mL (≈ 14.1 µM), the “MBC Enterococcus fecalis, lipopeptides without TFA counter ion” value [9] was 4 µg/mL (≈ 7.03 µM) and the “MIC Enterococcus fecalis” value [9] was 8 µg/mL (≈ 14.1 µM). The “MIC Enterococcus fecalis, lipopeptides without TFA counter ion” value [9] was 4 µg/mL (≈ 7.03 µM), the “MBC Enterococcus fecalis” value [9] was 16 µg/mL (≈ 28.1 µM) and the “MIC Pseudomonas aeruginosa” value [10] was 16 µg/mL (≈ 28.1 µM). For the same compound, the “MFC Aspergillus brasiliensis” value [11] was 128 µg/mL (≈ 225 µM), the “MIC Aspergillus brasiliensis” value [11] was 128 µg/mL (≈ 225 µM) and the “MBC Klebsiella pneumoniae, lipopeptides without TFA counter ion” value [12] was 64 µg/mL (≈ 113 µM). The “MIC Klebsiella pneumoniae” value [12] was 16 µg/mL (≈ 28.1 µM), the “MIC Klebsiella pneumoniae, lipopeptides without TFA counter ion” value [12] was 32 µg/mL (≈ 56.3 µM) and the “MBC Klebsiella pneumoniae” value [12] was 16 µg/mL (≈ 28.1 µM). For the same compound, the “Hemolysis HC10 (MHC), concentration of lipopeptide inducing 10% of hemolysis” value [13] was 64 µg/mL, the “MBC Pseudomonas aeruginosa” value [14] was 32 µg/mL (≈ 56.3 µM) and the “MFC Candida albicans, lipopeptides without TFA counter ion” value [15] was 128 µg/mL (≈ 225 µM).
For `CCCCCCCCCCCCCC(=O)N[C@@H](CCCCN)C(=O)N[C@@H](CCCCN)C(=O)N[C@@H](CCCCN)C(N)=O` [C14-KKK-NH2], the “MBC Proteus vulgaris” value [1] was greater than 512 µg/mL, the “MBC Staphylococcus aureus, lipopeptides without TFA counter ion” value [2] was 32 µg/mL (≈ 52.3 µM) and the “MIC Staphylococcus aureus” value [2] was 64 µg/mL (≈ 105 µM). The “MIC Staphylococcus aureus, lipopeptides without TFA counter ion” value [2] was 32 µg/mL (≈ 52.3 µM), the “MBC Staphylococcus aureus” value [2] was 64 µg/mL (≈ 105 µM) and the “MFC Candida albicans” value [3] was 128 µg/mL (≈ 209 µM). For the same compound, the “MIC Candida albicans” value [3] was 128 µg/mL (≈ 209 µM), the “MIC Candida albicans, lipopeptides without TFA counter ion” value [3] was 256 µg/mL (≈ 418 µM) and the “MIC Staphylococcus epidermidis” value [4] was 8 µg/mL (≈ 13.1 µM). For the same compound, the “MBC Staphylococcus epidermidis” value [4] was 8 µg/mL (≈ 13.1 µM), the “MIC Proteus vulgaris” value [5] was greater than 512 µg/mL and the “MIC Bacillus subtillis” value [6] was 4 µg/mL (≈ 6.54 µM). The “MBC Bacillus subtillis” value [6] was 4 µg/mL (≈ 6.54 µM), the “MFC Candida tropicalis” value [7] was 128 µg/mL (≈ 209 µM) and the “MIC Candida tropicalis” value [7] was 128 µg/mL (≈ 209 µM). For the same compound, the “MBC Escherichia coli, lipopeptides without TFA counter ion” value [8] was 128 µg/mL (≈ 209 µM), the “MIC Escherichia coli” value [8] was 128 µg/mL (≈ 209 µM) and the “MIC Escherichia coli, lipopeptides without TFA counter ion” value [8] was 128 µg/mL (≈ 209 µM). For the same compound, the “MBC Escherichia coli” value [8] was 128 µg/mL (≈ 209 µM), the “MBC Enterococcus fecalis, lipopeptides without TFA counter ion” value [9] was 64 µg/mL (≈ 105 µM) and the “MIC Enterococcus fecalis” value [9] was 64 µg/mL (≈ 105 µM). For the same compound, the “MIC Enterococcus fecalis, lipopeptides without TFA counter ion” value [9] was 32 µg/mL (≈ 52.3 µM), the “MBC Enterococcus fecalis” value [9] was 64 µg/mL (≈ 105 µM) and the “MIC Pseudomonas aeruginosa” value [10] was 32 µg/mL (≈ 52.3 µM). The “MFC Aspergillus brasiliensis” value [11] was 64 µg/mL (≈ 105 µM), the “MIC Aspergillus brasiliensis” value [11] was 64 µg/mL (≈ 105 µM) and the “MBC Klebsiella pneumoniae, lipopeptides without TFA counter ion” value [12] was 256 µg/mL (≈ 418 µM). For the same compound, the “MIC Klebsiella pneumoniae” value [12] was 128 µg/mL (≈ 209 µM), the “MIC Klebsiella pneumoniae, lipopeptides without TFA counter ion” value [12] was 128 µg/mL (≈ 209 µM) and the “MBC Klebsiella pneumoniae” value [12] was 128 µg/mL (≈ 209 µM). For the same compound, the “Hemolysis HC10 (MHC), concentration of lipopeptide inducing 10% of hemolysis” value [13] was 256 µg/mL, the “MBC Pseudomonas aeruginosa” value [14] was 128 µg/mL (≈ 209 µM) and the “MFC Candida albicans, lipopeptides without TFA counter ion” value [15] was 256 µg/mL (≈ 418 µM).
In the case of `CCCCCCCCCCCCCC(=O)N[C@@H](CCCCN)C(=O)NCC(=O)N[C@@H](CCCCN)C(N)=O` [C14-KGK-NH2] (Myristoyl-Lys-Gly-Lys-NH2), the “MBC Proteus vulgaris” value [1] is reported as greater than 512 µg/mL, the “MBC Staphylococcus aureus, lipopeptides without TFA counter ion” value [2] is reported as 64 µg/mL (≈ 118 µM) and the “MIC Staphylococcus aureus” value [2] is reported as 64 µg/mL (≈ 118 µM). For the same compound, the “MIC Staphylococcus aureus, lipopeptides without TFA counter ion” value [2] was 64 µg/mL (≈ 118 µM), the “MBC Staphylococcus aureus” value [2] was 128 µg/mL (≈ 237 µM) and the “MFC Candida albicans” value [3] was 128 µg/mL (≈ 237 µM). For the same compound, the “MIC Candida albicans” value [3] was 128 µg/mL (≈ 237 µM), the “MIC Candida albicans, lipopeptides without TFA counter ion” value [3] was 128 µg/mL (≈ 237 µM) and the “MIC Staphylococcus epidermidis” value [4] was 16 µg/mL (≈ 29.6 µM). For the same compound, the “MBC Staphylococcus epidermidis” value [4] was 16 µg/mL (≈ 29.6 µM), the “MIC Proteus vulgaris” value [5] was greater than 512 µg/mL and the “MIC Bacillus subtillis” value [6] was 8 µg/mL (≈ 14.8 µM). For the same compound, the “MBC Bacillus subtillis” value [6] was 8 µg/mL (≈ 14.8 µM), the “MFC Candida tropicalis” value [7] was 256 µg/mL (≈ 473 µM) and the “MIC Candida tropicalis” value [7] was 256 µg/mL (≈ 473 µM). For the same compound, the “MBC Escherichia coli, lipopeptides without TFA counter ion” value [8] was 128 µg/mL (≈ 237 µM), the “MIC Escherichia coli” value [8] was 128 µg/mL (≈ 237 µM) and the “MIC Escherichia coli, lipopeptides without TFA counter ion” value [8] was 128 µg/mL (≈ 237 µM). For the same compound, the “MBC Escherichia coli” value [8] was 128 µg/mL (≈ 237 µM), the “MBC Enterococcus fecalis, lipopeptides without TFA counter ion” value [9] was 64 µg/mL (≈ 118 µM) and the “MIC Enterococcus fecalis” value [9] was 64 µg/mL (≈ 118 µM). The “MIC Enterococcus fecalis, lipopeptides without TFA counter ion” value [9] was 64 µg/mL (≈ 118 µM), the “MBC Enterococcus fecalis” value [9] was 64 µg/mL (≈ 118 µM) and the “MIC Pseudomonas aeruginosa” value [10] was 32 µg/mL (≈ 59.2 µM). For the same compound, the “MFC Aspergillus brasiliensis” value [11] was 128 µg/mL (≈ 237 µM), the “MIC Aspergillus brasiliensis” value [11] was 128 µg/mL (≈ 237 µM) and the “MBC Klebsiella pneumoniae, lipopeptides without TFA counter ion” value [12] was 64 µg/mL (≈ 118 µM). The “MIC Klebsiella pneumoniae” value [12] was 64 µg/mL (≈ 118 µM), the “MIC Klebsiella pneumoniae, lipopeptides without TFA counter ion” value [12] was 64 µg/mL (≈ 118 µM) and the “MBC Klebsiella pneumoniae” value [12] was 64 µg/mL (≈ 118 µM). For the same compound, the “Hemolysis HC10 (MHC), concentration of lipopeptide inducing 10% of hemolysis” value [13] was 128 µg/mL, the “MBC Pseudomonas aeruginosa” value [14] was 64 µg/mL (≈ 118 µM) and the “MFC Candida albicans, lipopeptides without TFA counter ion” value [15] was 128 µg/mL (≈ 237 µM).
